{"source": "patent US6818656B2", "about": "“Method and composition for treatment of irritable bowel disease” (University of Florida, priority 2001, dated 2004)", "key": {"[1]": {"system": "stress-induced fecal output", "assay": "Psychological stress-induced (water avoidance) IBS model, SC administration", "format": "in vivo", "conditions": "for Stool Output: 6-h collection", "from_the_text": "(§1) For drug preparation and administration, the compounds were put into solution with sterile normal saline and sonicated briefly, if necessary. The drugs were made up at concentrations such that the rats received the drugs PO or SC at the rate of 1 cc per kilogram. Mice received the CHX(3,4,3)-trans IP at 1 cc per 100 grams. The solutions were made fresh the day of the study. Control animals received an equivalent amount of saline PO or SC.\nAnimal care and experimental procedures were approved by the Institutional Animal Care and Use Committee. Male Sprague-Dawley rats (250-350 g, Harlan Sprague-Dawley, Indianapolis, Ind.) were housed in polycarbonate cages in a temperature- and humidity-controlled room with a 12-hour light/dark cycle. The experiments were performed at the same time of the day to decrease diurnal variability. A typical experiment involved 20 rats: 5 saline-treated controls and 5 pretreated with polyamine analogues at each of three doses as either a SC injection or a PO gavage. The rats in the SC studies and in one set of experiments involving PO administration were allowed ad libitum access to a standard rodent diet and tap water until the morning of the experiment. Stress was initiated 30 minutes post drug as described below. In another set of experiments involving PO administration, the animals were fasted overnight but were allowed free access to water. […] In a final experiment, non-stressed control rats were injected with saline SC and housed in individual polycarbonate cages. The fecal output (number of pellets) of the stressed and unstressed animals was recorded at 30-min intervals for a 6-h period, during which they received no food or water.\n(§2) To initiate the stress, water was added to each cage to a depth of at least 4.5 cm, i.e., within 0.5 cm of the top of the Pyrex dish. To avoid contact with water, the rats stand on the glass dish for the 6 h of the study. Stool output was expressed as the total number of fecal pellets excreted over the 6-h collection period. Percent reduction was calculated by dividing the mean value from the treated animals (T) by the mean value from the control animals (C), subtracting the resulting quotient from 1.0, and multiplying by 100 [i.e., (1.0−T/C)×100].\n(§3) A one-tailed t-test assuming unequal variance was performed on the stool output data of the treated vs control (0 mg/kg) animals for each compound. A value of P<0.05 was considered significant.\nThe psychological stress-induced IBS model involves subjecting the rats to an aversive stimulus (water) and observing the increase in fecal output over a period of time. […] Control rats received an equivalent amount of saline SC."}, "[2]": {"assay": "Acute toxicity assessment, single intraperitoneal injection", "format": "in vivo", "protocol": "For the acute toxicity assessment the CHX(3,4,3)-trans was administered to female CD-1 mice (Charles River, Wilmington, Mass.) as a single intraperitoneal (IP) injection. The animals were carefully observed post-dosing and were scored 2 h after administration of the drug.\nas §1"}, "[3]": {"system": "stress-induced fecal output", "assay": "Psychological stress-induced (water avoidance) IBS model, PO administration by gavage", "format": "in vivo, rat", "conditions": "6-hr collection", "from_the_text": "as §1\nAnimal care and experimental procedures were approved by the Institutional Animal Care and Use Committee. Male Sprague-Dawley rats (250-350 g, Harlan Sprague-Dawley, Indianapolis, Ind.) were housed in polycarbonate cages in a temperature- and humidity-controlled room with a 12-hour light/dark cycle. The experiments were performed at the same time of the day to decrease diurnal variability. A typical experiment involved 20 rats: 5 saline-treated controls and 5 pretreated with polyamine analogues at each of three doses as either a SC injection or a PO gavage. The rats in the SC studies and in one set of experiments involving PO administration were allowed ad libitum access to a standard rodent diet and tap water until the morning of the experiment. Stress was initiated 30 minutes post drug as described below. In another set of experiments involving PO administration, the animals were fasted overnight but were allowed free access to water. The animals were then stressed from ½ h to 2 h post-drug (data not shown). In a final experiment, non-stressed control rats were injected with saline SC and housed in individual polycarbonate cages. The fecal output (number of pellets) of the stressed and unstressed animals was recorded at 30-min intervals for a 6-h period, during which they received no food or water.\nas §2, with “Once the drug had been administered, the animals were housed individually in polycarbonate cages containing a clear 70×50 mm Pyrex crystallization dish (Fisher, Pittsburgh, Pa.) inverted in the center and held in place with vacuum grease. To initiate” for “To initiate”\nas §3\nBecause an orally active compound would be desirable for the treatment of IBS, selected analogues utilizing oral administration in the same model were assessed. In the initial studies animals were utilized that had been fasted overnight. Rodents were then given the drug of interest PO by gavage and stressed ½ h, 1 h, or 2 h post-drug. Unfortunately, because of the low baseline stool output in fasted control rats, the reductions in fecal output observed upon drug administration cannot be reported with any confidence (data not shown). Thereafter, only non-fasted animals were employed and were given the agents by gavage at doses of 11.6, 23.2, 57.8, or 115.6:mol/kg 30 minutes before initiating the stress. […] At doses of 11.6 and 23.2:mol/kg, CHX(3,4,3)-trans reduced stooling by about 80% (P=0.001 and <0.001, respectively). DEHSPM was effective at a dose of […]:mol/kg (40% diminution of fecal output; P<0.01), and DE(5,4,5) was active at doses of 23.2 and 57.8:mol/kg (55 and 73% reductions in fecal output, respectively; P<0.001 for both doses)."}, "[4]": {"system": "castor oil-induced diarrhea", "conditions": "cited from earlier work"}, "[5]": {"system": "stress-induced fecal output", "assay": "Psychological stress-induced (water avoidance) IBS model, PO administration by gavage", "format": "in vivo, rat", "conditions": "2.3 μmol/kg PO, non-fasted, stress 30 min post drug, 6-hr collection"}}}
{"smiles": "CCNCCCN[C@H]1CC[C@H](NCCCNCC)CC1", "note": "[Compound 12, N,N′-bis[3-(ethylamino)propyl]-trans-1,4-cyclohexanediamine]", "values": [{"measurement": "Stool Output", "setting": "[1]; 0.0726 μmol/kg SC", "result": "5.4 ± 2.1 number of fecal pellets"}, {"measurement": "Stool Output", "setting": "[1]; 0.145 μmol/kg SC", "result": "2.2 ± 1.3 number of fecal pellets"}, {"measurement": "Stool Output", "setting": "[1]; 0.29 μmol/kg SC", "result": "0.6 ± 0.9 number of fecal pellets"}, {"measurement": "toxic effects observed in stressed rats", "setting": "[1]; 0.58 μmol/kg SC", "result": "^gToxic effects were evident, including huddling in the corner of the cage."}, {"measurement": "Stool Output", "setting": "[1]; 0.58 μmol/kg SC", "result": "0 ± 0 number of fecal pellets"}, {"measurement": "toxic effects observed in stressed rats", "setting": "[1]; 1.16 μmol/kg SC", "result": "^gToxic effects were evident, including huddling in the corner of the cage."}, {"measurement": "Stool Output", "setting": "[1]; 1.16 μmol/kg SC", "result": "0 ± 0 number of fecal pellets"}, {"measurement": "toxic effects observed in stressed rats", "setting": "[1]; 2.3 μmol/kg SC", "result": "^gToxic effects were evident, including huddling in the corner of the cage."}, {"measurement": "Stool Output", "setting": "[1]; 2.3 μmol/kg SC, stress 30 min post drug", "result": "0 ± 0 number of fecal pellets"}, {"measurement": "diminution in fecal output", "setting": "[1]; 0.07 :mol/kg SC", "result": 50, "unit": "%"}, {"measurement": "inhibition in vivo at 0.0726 µmol/kg", "setting": "[1]; Rattus norvegicus, 0.0726 μmol/kg SC, vs stressed controls, 6 h, read-out: % Reduction", "result": 52, "unit": "%"}, {"measurement": "inhibition in vivo at 0.145 µmol/kg", "setting": "[1]; Rattus norvegicus, 0.145 μmol/kg SC, vs stressed controls, 6 h, read-out: % Reduction", "result": 80, "unit": "%"}, {"measurement": "inhibition in vivo at 0.29 µmol/kg", "setting": "[1]; Rattus norvegicus, 0.29 μmol/kg SC, vs stressed controls, 6 h, read-out: % Reduction", "result": 95, "unit": "%"}, {"measurement": "inhibition in vivo at 0.58 µmol/kg", "setting": "[1]; Rattus norvegicus, 0.58 μmol/kg SC, vs stressed controls, 6 h, read-out: % Reduction", "result": 100, "unit": "%"}, {"measurement": "inhibition in vivo at 1.16 µmol/kg", "setting": "[1]; Rattus norvegicus, 1.16 μmol/kg SC, vs stressed controls, 6 h, read-out: % Reduction", "result": 100, "unit": "%"}, {"measurement": "inhibition in vivo at 2.3 µmol/kg", "setting": "[1]; Rattus norvegicus, 2.3 μmol/kg SC, vs stressed controls, 6 h, read-out: % Reduction", "result": 100, "unit": "%"}, {"measurement": "activity at diminishing stress-induced fecal output (in words)", "setting": "[1]; SC administration to stressed rats", "result": "most effective against stress-induced stooling, regardless of the mode of administration"}, {"measurement": "dose needed to reduce fecal output of the stressed animals to that of the unstressed controls", "setting": "[1]; SC, rats", "result": 0.0625, "unit": "mg/kg"}, {"measurement": "lowest dose that reduced stool output by >50% relative to the stressed controls", "setting": "[1]; SC, rats", "result": 0.03125, "unit": "mg/kg"}, {"measurement": "1 mg/kg neurotoxic dose relative to lowest dose reducing stool output by >50%", "setting": "[1]; rats, 1 mg/kg vs 0.03125 mg/kg", "result": "greater than 30 times"}, {"measurement": "acute toxicity", "setting": "[2]; IP, female CD-1 mice, single dose, scored 2 h", "result": "about 150 mg/kg"}, {"measurement": "toxic doses (neurological signs)", "setting": "[2]; IP, single dose, mice", "result": "≥ 125", "unit": "mg/kg"}, {"measurement": "toxic dose in mice, allometrically scaled, relative to the 0.0625 mg/kg effective dose in rats", "setting": "[2]; mouse toxic dose vs rat dose of 0.0625 mg/kg", "result": "at least 1000 times"}, {"measurement": "signs of acute toxicity in mice", "setting": "[2]; toxic doses, mice", "result": "uncoordinated movements, intention tremors, and severe motor dysfunction, especially of the hind limbs"}, {"measurement": "Stool Output", "setting": "[3]; 11.6 μmol/kg PO", "result": "2.2 ± 1.3 number of fecal pellets"}, {"measurement": "Stool Output", "setting": "[3]; 23.2 μmol/kg PO", "result": "2.0 ± 1.9 number of fecal pellets"}, {"measurement": "doses at which signs of motor dysfunction, including seizures, were observed", "setting": "[4]; rats, rodent antidiarrheal model", "result": "≥ 1", "unit": "mg/kg"}, {"measurement": "activity in castor oil-induced diarrhea model (in words)", "setting": "[4]; rodent", "result": "most effective of the SPM analogues tested"}, {"measurement": "Stool Output", "setting": "[5]", "result": "9.0 ± 1.6 number of fecal pellets"}]}
